Reference: patent publication US3953442A (priority 1972, dated 1976)
Like-named read-outs stand apart in the source and are kept apart here.

Columns and labels:
visceral pain = assay: Analgesic effect, acetic acid induced visceral pain in the mouse (Koster and Anderson test); format: in vivo; settings: oral, 30 min before acetic acid injection, 50% effective dose
Procedure: The compounds (I) are analgesic agents.
A visceral pain is induced in the mouse by intraperitonal injection of a dilute solution of acetic acid (Koster and Anderson test).
The animals, which are starved on the day before the experiment and separated into random batches of 5, are treated with the products under test thirty minutes before injection of the irritant. Treatment was always performed orally.
After the acetic acid solution is injected the animals show symptoms of pain (stretching of the abdomen with extension of the back feet) which are counted during two spells of 5 minutes for each lot: from the fifth to the tenth minute and from the fifteenth to the twentieth minute respectively after the acid is injected
The ED50 value is expressed in mg kg bodyweight

central nervous system = assay: animal or person; format: in vivo; settings: Mus musculus, read-out: Spontaneous pattern of activity (table head: LD50 in mg/kg)
[1] = Acute toxicity (LD50) in the mouse; settings: in vivo
Procedure: The compounds of the present invention are not very toxic. By way of example, with the mouse, the dose which causes the death of 50 % of the animals or (LD50) is about 400 mg/kg bodyweight by oral and sub-cutaneous administration in the case of 5862.

CC(Cc1cn(-c2ccccc2)c2ccccc12)N1CCCCC1 (centres unmarked) [compound 5478]
ED50 (visceral pain): 12.5 mg/kg
ED50 (central nervous system; ip): 12.5 mg/kg

CNC(C)Cc1cn(-c2ccccc2)c2ccccc12 (centres unmarked) [compound 5479]
ED50 (central nervous system; ip): 2.5 mg/kg
ED50 (central nervous system; po): 25 mg/kg

CC(Cc1cn(-c2ccccc2)c2ccccc12)N1CCCC1 (centres unmarked) [compound 5480]
ED50 (central nervous system; ip): 2.5 mg/kg
ED50 (central nervous system; po): 12.5 mg/kg

CC(Cc1cn(-c2ccccc2)c2ccccc12)N1CCOCC1 (centres unmarked) [compound 5481]
ED50 (visceral pain): 12.5 mg/kg
ED50 (central nervous system; ip): 2.5 mg/kg

CC(Cc1cn(-c2ccccc2)c2ccccc12)N(C)C (centres unmarked) [compound 5483]
ED50 (visceral pain): 12.5 mg/kg
ED50 (central nervous system; ip): 5 mg/kg
ED50 (central nervous system; po): 25 mg/kg

CNC(C)Cc1cn(-c2ccc(OC)cc2)c2ccccc12 (centres unmarked) [compound 5772]
ED50 (central nervous system; ip): 25 mg/kg

COc1ccc(-n2cc(CC(C)N(C)C)c3ccccc32)cc1 (centres unmarked) [compound 5773]
ED50 (visceral pain): 12.5 mg/kg
ED50 (central nervous system; ip): 1.25 mg/kg
ED50 (central nervous system; po): 40 mg/kg

COc1ccc(-n2cc(CC(C)NC(C)C)c3ccccc32)cc1 (centres unmarked) [compound 5774, 1-(4-methoxyphenyl)-3-(2-isopropylaminopropyl)indole]
ED50 (central nervous system; ip): 12.5 mg/kg

COc1ccc(-n2cc(CC(C)N3CCCC3)c3ccccc32)cc1 (centres unmarked) [compound 5775]
ED50 (visceral pain): 25 mg/kg
ED50 (central nervous system; ip): 1 mg/kg

COc1ccc(-n2cc(CC(C)N3CCCCC3)c3ccccc32)cc1 (centres unmarked) [compound 5776]
ED50 (central nervous system; ip): 5 mg/kg
ED50 (central nervous system; po): 35 mg/kg

COc1ccc(-n2cc(CC(C)N3CCOCC3)c3ccccc32)cc1 (centres unmarked) [compound 5777]
ED50 (central nervous system; ip): 25 mg/kg

CNC(C)Cc1cn(-c2ccc(Cl)cc2)c2ccccc12 (centres unmarked) [compound 5859]
ED50 (central nervous system; ip): 5 mg/kg

CC(Cc1cn(-c2ccc(Cl)cc2)c2ccccc12)N(C)C (centres unmarked) [compound 5860]
ED50 (visceral pain): 25 mg/kg
ED50 (central nervous system; ip): 5 mg/kg

CC(Cc1cn(-c2ccc(Cl)cc2)c2ccccc12)N1CCCC1 (centres unmarked) [compound 5861]
ED50 (visceral pain): 25 mg/kg

CC(Cc1cn(-c2ccc(F)cc2)c2ccccc12)N1CCCC1.Cl (centres unmarked) [compound 5862, 3-(2-pyrrolidinopropyl)-1-(4-fluorophenyl)indole hydrochloride]
ED50 (visceral pain): 3.12 mg/kg
LD50 ([1]; oral): ~400 mg/kg
LD50 ([1]; sc, sub-cutaneous): ~400 mg/kg
ED50 (central nervous system; ip): 0.4 mg/kg

CNC(C)Cc1cn(-c2ccc(F)cc2)c2ccccc12 (centres unmarked) [compound 5863]
ED50 (visceral pain): 6.25 mg/kg
ED50 (central nervous system; ip): 2 mg/kg

CC(Cc1cn(-c2ccc(F)cc2)c2ccccc12)N(C)C (centres unmarked) [compound 5864]
ED50 (visceral pain): 3.12 mg/kg
ED50 (central nervous system; ip): 2 mg/kg

CNC(C)Cc1cn(-c2ccc(N)cc2)c2ccccc12 (centres unmarked) [compound 5935]
ED50 (central nervous system; ip): 2.5 mg/kg

CC(Cc1cn(-c2ccccc2Cl)c2ccccc12)N1CCCC1 (centres unmarked) [compound 5984]
ED50 (central nervous system; ip): 0.25 mg/kg
ED50 (central nervous system; po): 10 mg/kg

CC(Cc1cn(-c2ccccc2Cl)c2ccccc12)N(C)C (centres unmarked) [compound 5987]
ED50 (visceral pain): 12.5 mg/kg
ED50 (central nervous system; ip): 6 mg/kg
ED50 (central nervous system; po): 6.25 mg/kg

CC(Cc1cn(-c2ccccc2F)c2ccccc12)N1CCCC1 (centres unmarked) [compound 5988]
ED50 (visceral pain): 12.5 mg/kg
ED50 (central nervous system; ip): 5 mg/kg

CNC(C)Cc1cn(-c2ccccc2F)c2ccccc12 (centres unmarked) [compound 6050]
ED50 (central nervous system; ip): 12.5 mg/kg

CNC(C)Cc1cn(-c2ccccc2Cl)c2ccccc12 (centres unmarked) [compound 6051]
ED50 (visceral pain): 50 mg/kg
ED50 (central nervous system; ip): 5 mg/kg

COc1ccc2c(c1)c(CC(C)N1CCCC1)cn2-c1ccccc1 (centres unmarked) [compound 6066]
ED50 (central nervous system; ip): 10 mg/kg

CC(Cc1cn(-c2cccnc2)c2ccccc12)N(C)C (centres unmarked) [compound 6097]
ED50 (central nervous system; ip): 10 mg/kg

CC(Cc1cn(-c2ccccn2)c2ccccc12)N(C)C (centres unmarked) [compound 6099]
ED50 (central nervous system; ip): 50 mg/kg

CC(Cc1cn(-c2ccccn2)c2ccccc12)N1CCCC1 (centres unmarked) [compound 6102]
ED50 (central nervous system; ip): 12.5 mg/kg

CNC(C)Cc1cn(-c2ccccn2)c2ccccc12 (centres unmarked) [compound 6104]
ED50 (central nervous system; ip): 25 mg/kg

CC(Cc1cn(-c2ccc(F)cc2)c2ccc(Cl)cc12)N1CCCC1 (centres unmarked) [compound 6112, 5-chloro-1-(4-fluorophenyl)-3-(2-pyrrolidinopropyl)indole]
ED50 (visceral pain): 0.75 mg/kg
LD50 ([1]; oral): > 800 mg/kg
LD50 ([1]; sc, sub-cutaneous): 400 to 800 mg/kg
ED50 (central nervous system; ip): 0.4 mg/kg

CC(Cc1cn(-c2ccccc2)c2ccc(F)cc12)N1CCCC1 (centres unmarked) [compound 6116]
LD50 ([1]; sc, sub-cutaneous): > 1000 mg/kg
ED50 (central nervous system; ip): 0.25 mg/kg

CC(Cc1cn(-c2ccc(F)cc2)c2ccc(F)cc12)N1CCCC1 (centres unmarked) [compound 6250]
ED50 (central nervous system; ip): 0.8 mg/kg
ED50 (central nervous system; po): 3.12 mg/kg

CC(Cc1cn(-c2ccc(Cl)cc2)c2ccc(F)cc12)N1CCCC1 (centres unmarked) [compound 6251]
ED50 (visceral pain): 12.5 mg/kg
ED50 (central nervous system; ip): 9 mg/kg
ED50 (central nervous system; po): 25 mg/kg

CC(N)Cc1cn(-c2ccc(F)cc2)c2ccccc12 (centres unmarked) [compound 6254]
ED50 (central nervous system; ip): 80 mg/kg

CC(Cc1cn(-c2ccc(Cl)cc2)c2ccc(F)cc12)N(C)C (centres unmarked) [compound 6264]
ED50 (central nervous system; ip): 20 mg/kg

CC(Cc1cn(-c2ccccc2)c2ccc(F)cc12)N(C)C (centres unmarked) [compound 6265]
ED50 (central nervous system; ip): 20 mg/kg

CC(Cc1cn(-c2ccc(F)cc2)c2ccc(Cl)cc12)N(C)C (centres unmarked) [compound 6268]
ED50 (central nervous system; ip): 6.25 mg/kg

CC(Cc1cn(-c2ccc(F)cc2)c2ccc(F)cc12)N(C)C (centres unmarked) [compound 6269]
ED50 (visceral pain): 6.25 mg/kg
ED50 (central nervous system; ip): 6.25 mg/kg

COc1ccc2c(c1)c(CC(C)N1CCCC1)cn2-c1ccc(F)cc1 (centres unmarked) [compound 6270]
ED50 (central nervous system; ip): 3.12 mg/kg

COc1ccc2c(c1)c(CC(C)N(C)C)cn2-c1ccccc1 (centres unmarked) [compound 6271]
ED50 (central nervous system; ip): 12.5 mg/kg
